Active and inactive are the calls of the source.
Experiments:
[1] = target: T1, Caspase-3 (Homo sapiens, UniProt P42574); assay type: functional;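 note: Dose-response selectivity test against caspase-3 for candidate inhibitors of sentrin-specific proteases (SENPs)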
T1 sequence (P42574 whole entry): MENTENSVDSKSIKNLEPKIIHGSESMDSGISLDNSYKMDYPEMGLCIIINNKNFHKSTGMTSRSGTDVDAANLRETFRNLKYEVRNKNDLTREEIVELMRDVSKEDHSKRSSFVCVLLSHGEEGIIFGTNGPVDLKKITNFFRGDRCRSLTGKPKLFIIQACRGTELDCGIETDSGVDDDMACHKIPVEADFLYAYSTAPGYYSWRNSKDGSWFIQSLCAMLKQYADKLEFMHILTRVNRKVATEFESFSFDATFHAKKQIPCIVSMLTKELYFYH

[2] = target: T2, Sentrin-specific protease 7 (Homo sapiens, UniProt Q9BQF6); assay type: functional;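 note: Luminescence-based dose-response confirmation of ultra-high-throughput screening hits, measuring inhibition of SENP7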
T2 sequence (Q9BQF6 whole entry): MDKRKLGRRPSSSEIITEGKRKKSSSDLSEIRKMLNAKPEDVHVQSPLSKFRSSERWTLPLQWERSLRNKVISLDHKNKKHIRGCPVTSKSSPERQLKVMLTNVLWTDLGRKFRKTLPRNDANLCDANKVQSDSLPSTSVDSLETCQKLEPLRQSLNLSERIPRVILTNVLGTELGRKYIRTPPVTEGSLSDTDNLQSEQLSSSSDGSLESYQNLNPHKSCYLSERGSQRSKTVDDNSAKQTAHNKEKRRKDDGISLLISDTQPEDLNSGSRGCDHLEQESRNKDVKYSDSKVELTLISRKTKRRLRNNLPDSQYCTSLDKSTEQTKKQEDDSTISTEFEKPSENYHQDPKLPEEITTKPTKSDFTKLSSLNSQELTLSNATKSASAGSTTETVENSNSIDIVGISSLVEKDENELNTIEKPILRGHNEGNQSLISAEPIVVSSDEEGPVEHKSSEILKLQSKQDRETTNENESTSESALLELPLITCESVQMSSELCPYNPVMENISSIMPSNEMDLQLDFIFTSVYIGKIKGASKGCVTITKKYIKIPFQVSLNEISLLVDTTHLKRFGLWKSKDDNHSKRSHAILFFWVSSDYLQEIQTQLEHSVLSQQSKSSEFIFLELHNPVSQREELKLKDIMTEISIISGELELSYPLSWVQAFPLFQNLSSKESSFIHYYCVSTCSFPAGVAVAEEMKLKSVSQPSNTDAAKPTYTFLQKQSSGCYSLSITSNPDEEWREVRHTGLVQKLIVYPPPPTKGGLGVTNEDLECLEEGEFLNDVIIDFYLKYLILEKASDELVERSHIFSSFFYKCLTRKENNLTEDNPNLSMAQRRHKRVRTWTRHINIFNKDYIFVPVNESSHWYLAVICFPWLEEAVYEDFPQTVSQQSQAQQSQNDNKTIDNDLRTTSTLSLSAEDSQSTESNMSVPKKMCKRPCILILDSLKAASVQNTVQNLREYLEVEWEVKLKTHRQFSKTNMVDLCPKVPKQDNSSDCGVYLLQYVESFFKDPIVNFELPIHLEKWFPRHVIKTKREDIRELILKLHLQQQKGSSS

[3] = target: T3, Sentrin-specific protease 6 (Homo sapiens, UniProt Q9GZR1); assay type: functional;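 note: Luminescence-based dose-response confirmatory assay of SENP6 inhibition, following up an ultra-high-throughput screen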
T3 sequence (Q9GZR1 whole entry): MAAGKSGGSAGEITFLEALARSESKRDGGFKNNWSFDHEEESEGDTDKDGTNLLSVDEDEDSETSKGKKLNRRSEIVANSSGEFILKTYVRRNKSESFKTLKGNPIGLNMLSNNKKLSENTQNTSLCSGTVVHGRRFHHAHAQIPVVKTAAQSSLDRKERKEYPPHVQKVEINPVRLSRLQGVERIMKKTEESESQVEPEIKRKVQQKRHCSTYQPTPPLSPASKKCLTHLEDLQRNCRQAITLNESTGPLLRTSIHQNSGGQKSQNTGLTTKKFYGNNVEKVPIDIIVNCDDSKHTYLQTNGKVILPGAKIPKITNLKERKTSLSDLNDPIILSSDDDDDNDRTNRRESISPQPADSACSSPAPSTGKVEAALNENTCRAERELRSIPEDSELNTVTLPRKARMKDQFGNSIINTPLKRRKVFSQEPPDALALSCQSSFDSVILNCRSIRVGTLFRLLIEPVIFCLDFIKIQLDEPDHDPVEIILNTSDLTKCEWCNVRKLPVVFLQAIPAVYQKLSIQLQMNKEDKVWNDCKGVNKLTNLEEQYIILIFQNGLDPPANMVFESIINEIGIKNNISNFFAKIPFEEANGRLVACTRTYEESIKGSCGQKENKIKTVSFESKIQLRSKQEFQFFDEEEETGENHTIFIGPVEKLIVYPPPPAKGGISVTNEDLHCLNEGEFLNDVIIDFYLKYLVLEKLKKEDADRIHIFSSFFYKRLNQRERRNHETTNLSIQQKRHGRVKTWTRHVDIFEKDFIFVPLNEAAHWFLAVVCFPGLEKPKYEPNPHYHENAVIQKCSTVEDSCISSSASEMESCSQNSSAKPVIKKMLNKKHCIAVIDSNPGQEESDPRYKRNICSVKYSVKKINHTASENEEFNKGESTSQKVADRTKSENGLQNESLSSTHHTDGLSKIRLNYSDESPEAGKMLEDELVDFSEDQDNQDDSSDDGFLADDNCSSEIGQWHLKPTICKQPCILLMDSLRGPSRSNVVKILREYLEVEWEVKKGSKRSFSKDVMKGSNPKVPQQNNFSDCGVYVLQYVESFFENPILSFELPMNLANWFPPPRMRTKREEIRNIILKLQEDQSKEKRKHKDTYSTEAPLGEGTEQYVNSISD

[4] = target: T4, Sentrin-specific protease 8 (Homo sapiens, UniProt Q96LD8); assay type: functional;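 note: luminescence read-out of SENP8 inhibition, dose-response confirmation following an ultra-high-throughput screen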
T4 sequence (Q96LD8 whole entry): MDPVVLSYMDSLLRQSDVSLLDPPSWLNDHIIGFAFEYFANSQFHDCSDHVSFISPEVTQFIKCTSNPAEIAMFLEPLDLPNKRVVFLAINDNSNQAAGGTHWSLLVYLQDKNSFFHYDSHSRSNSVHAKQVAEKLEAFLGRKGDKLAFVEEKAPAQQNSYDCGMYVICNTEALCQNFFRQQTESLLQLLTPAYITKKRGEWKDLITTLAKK

[5] = target: T5, Mitochondrial peptide methionine sulfoxide reductase (Bos taurus, UniProt P54149); assay: Absorbance-based biochemical high throughput dose response assay for activators of Methionine sulfoxide reductase A (MsrA).; assay type: functional
T5 sequence (P54149 whole entry): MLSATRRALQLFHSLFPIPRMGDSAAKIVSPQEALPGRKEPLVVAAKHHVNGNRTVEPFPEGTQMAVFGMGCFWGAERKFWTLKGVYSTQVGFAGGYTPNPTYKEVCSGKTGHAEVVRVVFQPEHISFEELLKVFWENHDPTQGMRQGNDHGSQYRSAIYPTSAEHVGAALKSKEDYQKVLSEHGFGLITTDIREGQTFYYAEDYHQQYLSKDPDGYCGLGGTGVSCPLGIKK

[6] = target: T6, Ubiquitin-conjugating enzyme E2 N (Homo sapiens, UniProt P61088); assay type: functional;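 note: Dose-response confirmation in a TR-FRET assay detecting UBC13-driven polyubiquitin chain formation, inhibition measured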
T6 sequence (P61088 whole entry): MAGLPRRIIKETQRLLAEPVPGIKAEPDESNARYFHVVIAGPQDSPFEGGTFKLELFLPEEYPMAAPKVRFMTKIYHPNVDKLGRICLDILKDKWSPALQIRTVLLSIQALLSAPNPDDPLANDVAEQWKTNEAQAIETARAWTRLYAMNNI

[7] = target: T7, Low molecular weight phosphotyrosine protein phosphatase (Homo sapiens, UniProt P24666); assay type: functional; conditions: read-out: IC50_Mean;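 note: Dose-response confirmation assay measuring inhibition of LMPTP enzyme activity by fluorescence intensity read-out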
T7 sequence (P24666 whole entry): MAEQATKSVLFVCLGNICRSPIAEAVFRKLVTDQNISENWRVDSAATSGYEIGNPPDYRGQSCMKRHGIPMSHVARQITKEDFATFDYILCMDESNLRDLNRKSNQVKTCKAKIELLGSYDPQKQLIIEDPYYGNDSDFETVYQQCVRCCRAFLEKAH

[8] = target: Albumin (Bos taurus, UniProt P02769); assay: Counterscreen for inhibitors of T-cell receptor (TCR)-CD3 interaction: Fluorescence-based biochemical high throughput dose response assay to identify inhibitors of T-cell receptor (TCR)-CD3 interaction using a TAMRA-labeled BSA probe.; assay type: functional
Albumin, sequence (P02769 whole entry): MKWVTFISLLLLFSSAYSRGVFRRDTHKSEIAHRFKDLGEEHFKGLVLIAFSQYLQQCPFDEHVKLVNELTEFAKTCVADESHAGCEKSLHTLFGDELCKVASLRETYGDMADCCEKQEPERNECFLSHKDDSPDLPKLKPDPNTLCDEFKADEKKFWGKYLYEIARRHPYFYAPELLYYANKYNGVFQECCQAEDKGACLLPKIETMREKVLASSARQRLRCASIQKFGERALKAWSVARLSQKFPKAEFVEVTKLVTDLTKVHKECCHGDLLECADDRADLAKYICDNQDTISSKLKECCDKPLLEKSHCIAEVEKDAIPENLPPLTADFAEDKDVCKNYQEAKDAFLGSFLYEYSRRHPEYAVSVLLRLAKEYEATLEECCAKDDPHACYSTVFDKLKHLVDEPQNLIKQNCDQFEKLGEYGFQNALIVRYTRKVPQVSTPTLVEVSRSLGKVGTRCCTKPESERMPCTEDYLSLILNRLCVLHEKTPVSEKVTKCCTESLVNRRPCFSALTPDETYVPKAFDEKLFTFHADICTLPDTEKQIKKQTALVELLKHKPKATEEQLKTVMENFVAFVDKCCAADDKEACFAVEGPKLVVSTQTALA

[9] = target: T8, DNA repair protein RAD52 homolog (Homo sapiens, UniProt P43351); assay type: functional, biochemical
T8 sequence (P43351 whole entry): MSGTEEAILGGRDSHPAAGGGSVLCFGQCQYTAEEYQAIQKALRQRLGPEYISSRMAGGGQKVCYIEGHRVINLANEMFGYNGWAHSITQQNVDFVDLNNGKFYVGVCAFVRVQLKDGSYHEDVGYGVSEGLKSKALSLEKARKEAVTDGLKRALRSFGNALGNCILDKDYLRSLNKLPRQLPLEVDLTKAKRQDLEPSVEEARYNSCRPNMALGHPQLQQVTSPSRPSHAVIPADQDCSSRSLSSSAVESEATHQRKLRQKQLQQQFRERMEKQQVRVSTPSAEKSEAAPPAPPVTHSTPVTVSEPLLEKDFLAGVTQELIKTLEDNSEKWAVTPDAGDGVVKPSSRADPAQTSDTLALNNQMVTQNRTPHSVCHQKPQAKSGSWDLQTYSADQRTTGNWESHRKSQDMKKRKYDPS

[10] = target: T9, Corticotropin-releasing factor receptor 2/Corticotropin-releasing factor-binding protein (Homo sapiens, UniProt P24387+Q13324); assay: Dose Response confirmation of uHTS hits for small molecule antagonists of the CRF-binding protein and CRF-R2 receptor complex.; assay type: functional; conditions: read-out: IC50_Mean
T9 sequence (Q13324 whole entry): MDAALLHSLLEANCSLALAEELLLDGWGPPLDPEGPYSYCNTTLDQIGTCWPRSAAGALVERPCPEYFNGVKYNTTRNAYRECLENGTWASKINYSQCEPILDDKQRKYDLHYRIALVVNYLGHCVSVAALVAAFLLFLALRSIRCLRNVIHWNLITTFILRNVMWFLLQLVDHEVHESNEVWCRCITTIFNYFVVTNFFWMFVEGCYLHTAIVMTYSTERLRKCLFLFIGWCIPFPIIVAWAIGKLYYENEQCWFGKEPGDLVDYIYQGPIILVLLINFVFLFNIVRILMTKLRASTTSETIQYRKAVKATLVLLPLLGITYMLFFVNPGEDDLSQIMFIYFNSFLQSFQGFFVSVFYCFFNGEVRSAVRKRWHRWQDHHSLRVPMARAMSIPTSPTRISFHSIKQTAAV
T9 sequence (P24387 whole entry): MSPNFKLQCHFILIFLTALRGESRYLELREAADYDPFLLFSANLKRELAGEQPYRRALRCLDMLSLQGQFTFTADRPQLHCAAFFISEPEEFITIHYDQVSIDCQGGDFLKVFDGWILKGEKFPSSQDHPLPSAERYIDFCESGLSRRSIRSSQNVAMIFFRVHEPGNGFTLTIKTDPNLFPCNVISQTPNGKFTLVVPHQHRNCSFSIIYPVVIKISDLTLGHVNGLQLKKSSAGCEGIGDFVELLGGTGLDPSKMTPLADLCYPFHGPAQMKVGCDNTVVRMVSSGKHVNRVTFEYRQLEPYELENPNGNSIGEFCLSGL

[11] = target: T9, Corticotropin-releasing factor receptor 2/Corticotropin-releasing factor-binding protein; assay: activators of CRF receptor 2 with binding protein – uHTS hits, confirmation (AID 602473); assay type: functional; conditions: read-out: EC50_Mean
[12] = CRF-BP/CRF-R2 complex antagonists, dose response, cell-based, uHTS hits, 384-well (AID 651639); assay type: functional, Homo sapiens; conditions: read-out: IC50_Mean
[13] = target: Tyrosine-protein phosphatase non-receptor type 11 (Homo sapiens, UniProt Q06124); assay: SHP2 phosphatase inhibition, dose response, selectivity assay for STEP inhibitor project, biochemical (AID 602367); assay type: functional; conditions: read-out: IC50_Mean
Tyrosine-protein phosphatase non-receptor type 11, sequence (Q06124 whole entry): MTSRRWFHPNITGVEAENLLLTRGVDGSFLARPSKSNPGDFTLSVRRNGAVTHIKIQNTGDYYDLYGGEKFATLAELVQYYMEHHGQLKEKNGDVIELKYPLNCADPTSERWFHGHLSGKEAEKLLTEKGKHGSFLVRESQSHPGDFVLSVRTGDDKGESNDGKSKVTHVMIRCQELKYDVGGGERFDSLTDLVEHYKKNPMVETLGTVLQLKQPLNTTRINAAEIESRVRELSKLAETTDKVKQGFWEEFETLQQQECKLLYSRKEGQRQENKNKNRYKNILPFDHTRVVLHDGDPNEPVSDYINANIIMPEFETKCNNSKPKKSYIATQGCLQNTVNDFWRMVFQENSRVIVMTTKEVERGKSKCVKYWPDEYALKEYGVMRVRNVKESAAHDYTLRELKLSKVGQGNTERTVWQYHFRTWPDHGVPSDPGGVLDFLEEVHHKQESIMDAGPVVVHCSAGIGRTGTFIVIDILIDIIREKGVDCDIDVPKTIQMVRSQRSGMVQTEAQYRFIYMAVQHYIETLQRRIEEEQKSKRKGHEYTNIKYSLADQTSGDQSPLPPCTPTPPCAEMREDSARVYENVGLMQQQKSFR

[14] = target: Tyrosine-protein phosphatase non-receptor type 5 (Homo sapiens, UniProt P54829); assay: STEP phosphatase inhibitors, confirmation, biochemical, fluorescence intensity, uHTS hits (AID 602372); assay type: functional; conditions: read-out: IC50_Mean
Tyrosine-protein phosphatase non-receptor type 5, sequence (P54829 whole entry): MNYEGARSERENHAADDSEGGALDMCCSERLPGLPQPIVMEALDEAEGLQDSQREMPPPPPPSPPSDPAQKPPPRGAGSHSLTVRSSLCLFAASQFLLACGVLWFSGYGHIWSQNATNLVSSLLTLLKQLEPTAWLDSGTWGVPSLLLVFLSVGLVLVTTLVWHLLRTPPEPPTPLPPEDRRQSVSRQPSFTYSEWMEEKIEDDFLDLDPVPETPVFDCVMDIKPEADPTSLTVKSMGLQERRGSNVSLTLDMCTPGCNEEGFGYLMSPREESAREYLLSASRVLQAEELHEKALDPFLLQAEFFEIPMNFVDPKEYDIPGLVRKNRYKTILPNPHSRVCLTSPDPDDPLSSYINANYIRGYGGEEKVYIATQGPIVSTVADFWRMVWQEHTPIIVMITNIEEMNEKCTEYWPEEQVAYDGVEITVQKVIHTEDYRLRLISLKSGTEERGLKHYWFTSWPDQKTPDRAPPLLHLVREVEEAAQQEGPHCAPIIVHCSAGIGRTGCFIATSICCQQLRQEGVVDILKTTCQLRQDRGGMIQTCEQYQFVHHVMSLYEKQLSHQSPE

[15] = target: Dual specificity protein phosphatase 3 (Homo sapiens, UniProt P51452); assay: VHR phosphatase inhibition, dose response, selectivity assay for STEP inhibitor project, biochemical (AID 602374); assay type: functional; conditions: read-out: IC50_Mean
Dual specificity protein phosphatase 3, sequence (P51452 whole entry): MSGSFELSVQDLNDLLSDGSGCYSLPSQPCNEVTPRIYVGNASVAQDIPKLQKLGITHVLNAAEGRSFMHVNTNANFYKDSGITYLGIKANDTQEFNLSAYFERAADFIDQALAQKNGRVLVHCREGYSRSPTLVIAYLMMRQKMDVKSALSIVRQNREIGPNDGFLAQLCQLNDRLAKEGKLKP

[16] = target: DNA repair and recombination protein RAD54-like (Homo sapiens, UniProt Q92698); assay: inhibitors of human RAD54 branch migration, confirmation, biochemical, fluorescence, cherry-picked samples, dose series (AID 651657); assay type: functional
DNA repair and recombination protein RAD54-like, sequence (Q92698 whole entry): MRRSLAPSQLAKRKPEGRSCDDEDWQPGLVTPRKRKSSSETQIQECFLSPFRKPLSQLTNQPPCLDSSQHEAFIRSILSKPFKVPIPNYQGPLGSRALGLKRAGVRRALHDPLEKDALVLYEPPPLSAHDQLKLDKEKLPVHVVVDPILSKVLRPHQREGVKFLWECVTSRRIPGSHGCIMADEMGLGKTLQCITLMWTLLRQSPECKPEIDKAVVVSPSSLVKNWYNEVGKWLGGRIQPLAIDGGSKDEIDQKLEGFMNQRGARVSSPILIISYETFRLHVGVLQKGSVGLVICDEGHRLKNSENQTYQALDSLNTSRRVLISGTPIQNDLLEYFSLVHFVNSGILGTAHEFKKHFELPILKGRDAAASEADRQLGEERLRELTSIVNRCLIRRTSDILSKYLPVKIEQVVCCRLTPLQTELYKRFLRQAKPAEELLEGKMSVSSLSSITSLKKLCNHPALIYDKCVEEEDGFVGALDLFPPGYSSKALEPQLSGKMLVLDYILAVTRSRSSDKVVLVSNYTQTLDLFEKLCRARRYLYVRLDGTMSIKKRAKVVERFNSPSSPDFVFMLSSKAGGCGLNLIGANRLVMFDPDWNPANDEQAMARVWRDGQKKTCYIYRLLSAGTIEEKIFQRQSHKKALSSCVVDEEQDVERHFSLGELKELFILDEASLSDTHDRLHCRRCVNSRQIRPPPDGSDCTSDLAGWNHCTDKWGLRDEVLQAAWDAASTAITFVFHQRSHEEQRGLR

[17] = target: DNA (cytosine-5)-methyltransferase 1 (Homo sapiens, UniProt P26358); assay: DNMT1 methyltransferase inhibitors, confirmation, biochemical, fluorescent molecular beacon (AID 602386); assay type: functional
DNA (cytosine-5)-methyltransferase 1, sequence (P26358 whole entry): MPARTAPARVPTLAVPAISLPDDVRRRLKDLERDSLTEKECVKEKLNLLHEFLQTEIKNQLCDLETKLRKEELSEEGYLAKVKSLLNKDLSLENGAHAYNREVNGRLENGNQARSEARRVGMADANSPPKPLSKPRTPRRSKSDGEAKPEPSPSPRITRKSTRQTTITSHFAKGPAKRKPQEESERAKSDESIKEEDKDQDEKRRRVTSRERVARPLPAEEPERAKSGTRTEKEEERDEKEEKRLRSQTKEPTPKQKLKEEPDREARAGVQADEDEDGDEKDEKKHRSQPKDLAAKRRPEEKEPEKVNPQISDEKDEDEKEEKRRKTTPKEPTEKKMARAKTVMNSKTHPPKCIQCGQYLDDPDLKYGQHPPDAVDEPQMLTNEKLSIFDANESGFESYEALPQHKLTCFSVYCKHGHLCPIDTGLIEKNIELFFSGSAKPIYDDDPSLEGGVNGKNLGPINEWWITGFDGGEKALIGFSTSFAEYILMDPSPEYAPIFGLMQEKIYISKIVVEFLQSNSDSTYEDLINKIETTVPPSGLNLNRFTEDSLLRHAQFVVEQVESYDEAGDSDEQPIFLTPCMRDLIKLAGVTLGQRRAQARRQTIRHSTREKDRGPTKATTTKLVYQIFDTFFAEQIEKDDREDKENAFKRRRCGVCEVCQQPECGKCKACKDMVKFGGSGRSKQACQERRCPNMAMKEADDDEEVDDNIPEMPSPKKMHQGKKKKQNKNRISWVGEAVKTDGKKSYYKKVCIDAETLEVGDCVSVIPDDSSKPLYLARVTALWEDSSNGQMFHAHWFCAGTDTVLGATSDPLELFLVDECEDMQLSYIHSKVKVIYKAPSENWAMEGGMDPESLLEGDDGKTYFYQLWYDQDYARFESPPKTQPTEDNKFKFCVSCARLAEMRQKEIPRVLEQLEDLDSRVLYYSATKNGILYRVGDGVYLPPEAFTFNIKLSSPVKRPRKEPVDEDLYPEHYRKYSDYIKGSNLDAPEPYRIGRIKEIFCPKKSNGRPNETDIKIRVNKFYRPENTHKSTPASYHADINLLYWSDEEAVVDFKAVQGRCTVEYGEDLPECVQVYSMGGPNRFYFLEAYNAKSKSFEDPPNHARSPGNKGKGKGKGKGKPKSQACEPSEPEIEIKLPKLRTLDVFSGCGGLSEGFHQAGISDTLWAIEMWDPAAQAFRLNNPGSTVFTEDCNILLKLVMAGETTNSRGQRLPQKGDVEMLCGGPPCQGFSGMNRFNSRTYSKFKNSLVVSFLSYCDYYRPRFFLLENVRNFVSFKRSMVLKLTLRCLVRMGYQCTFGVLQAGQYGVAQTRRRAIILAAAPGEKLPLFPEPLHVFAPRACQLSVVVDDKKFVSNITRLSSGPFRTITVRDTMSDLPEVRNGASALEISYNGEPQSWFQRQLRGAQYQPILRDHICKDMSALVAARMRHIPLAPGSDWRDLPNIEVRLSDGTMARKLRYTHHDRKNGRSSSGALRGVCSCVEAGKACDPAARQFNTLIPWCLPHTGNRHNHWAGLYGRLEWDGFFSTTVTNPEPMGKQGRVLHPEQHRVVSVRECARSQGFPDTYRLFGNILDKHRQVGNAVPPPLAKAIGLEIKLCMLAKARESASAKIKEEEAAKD

COc1ccc(S(=O)(=O)N2CCOCC2)cc1NC(=O)COC(=O)c1ccc([N+](=O)[O-])s1
IC50 [1]: 17.1 µM (active) | IC50 [2]: 9.28 µM (active) | IC50 [3]: 6.27 µM (active) | IC50 [4]: 6.06 µM (active) | EC50 [5]: 40 µM (inactive)

Cc1ccc(-c2nc3cc(C(=O)NCCCn4ccnc4)ccc3c(O)c2O)cc1
IC50 [6]: > 20 µM (inactive) | IC50 [7]: 16 µM (active) | IC50 [8]: > 94.1 µM (inactive) | AC50 [9]: 7.05 µM (active)

O=C(COC(=O)C1(c2ccc(F)cc2)CCCC1)NCc1ccc2c(c1)OCO2
IC50 [10]: < 0.368 µM (active) | EC50 [11]: > 53 µM (inactive) | IC50 [12]: 11.1 µM (active)

COc1cc(Cl)ccc1N=C(S)N(CCCN1CCOCC1)Cc1cn(C)c2ccccc12
IC50 [13]: 2.07 µM (active) | IC50 [14]: 20.8 µM (inactive) | IC50 [15]: 1.03 µM (active)

O=C(Nc1ccccc1)c1cc(S(=O)(=O)N2CCOCC2)cs1
AC50 [16]: 70.3 µM (active)

O=C1Nc2c(Cl)cc(Cl)cc2C1=O
IC50 [17]: 11.8 µM (active) | EC50 [5]: > 104 µM (inactive)

Source: ChEMBL document CHEMBL1201862, “PubChem BioAssay data set” (2004)
